Laboratory results published in ChEMBL document CHEMBL1909046, “DrugMatrix in vitro pharmacology data”.
pIC50: −log10 of the molar value.

Target: Cytochrome P450 2C19 (Homo sapiens, UniProt P33261)
Sequence (P33261 whole entry): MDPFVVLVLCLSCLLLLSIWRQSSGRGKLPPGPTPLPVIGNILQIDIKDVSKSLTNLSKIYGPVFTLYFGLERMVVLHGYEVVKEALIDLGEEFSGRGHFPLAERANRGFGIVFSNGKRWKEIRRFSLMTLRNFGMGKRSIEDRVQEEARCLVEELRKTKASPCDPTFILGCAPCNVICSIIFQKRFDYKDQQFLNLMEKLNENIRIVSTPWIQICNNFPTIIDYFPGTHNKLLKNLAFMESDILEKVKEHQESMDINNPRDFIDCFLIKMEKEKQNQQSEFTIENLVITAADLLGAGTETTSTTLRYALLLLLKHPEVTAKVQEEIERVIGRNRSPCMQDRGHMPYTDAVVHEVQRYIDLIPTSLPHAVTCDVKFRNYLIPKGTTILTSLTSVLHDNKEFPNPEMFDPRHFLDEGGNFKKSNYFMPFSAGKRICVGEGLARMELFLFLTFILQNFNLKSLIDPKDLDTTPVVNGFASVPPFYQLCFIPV

COc1cc([C@@H]2c3cc4c(cc3[C@H](O)[C@H]3COC(=O)[C@H]23)OCO4)cc(OC)c1OC [PODOFILOX] gave a pIC50 of 5.30.
